Data reported in publication PMC10943337 (Heliyon, 2024).

Molecular target: α-glucosidase (EC3.2.1.20)
Assay: p-nitrophenyl-d-glucopyranoside hydrolysis, absorbance at […] nm, pH […] °C
Format: biochemical, Saccharomyces cerevisiae
Conditions: read-out: IC50 μM

IC50: 45.9 ± 1.98 µM
Structure (SMILES): COc1c(-c2ccc(O)c(O)c2)oc2c(O)c(O)ccc2c1=O [compound 1, 2-(3,4-dihydroxyphenyl)-7,8-dihydroxy-3-methoxy-4H-chromen-4-one]
